Test results reported in US20220009920A1 (GB005, Inc., priority 2020, published 2022).

Legend:
Test in all cases: Large panel kinase profiling
Assay type in all cases: biochemical
Settings in all cases: 1 μM test article, 1 mM ATP
CLK3 = biological target: T1, CLK3 (Homo sapiens, UniProt P49761)
T1 construct: AssayQuant Technologies, Inc. (service laboratory)
Procedure, shortened: (§1)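 At 30° C., kinases turned over a CSox-Sensor peptide substrate with 1 mM ATP while 1 μM test article was present. Progress was followed by kinetic fluorescence readings.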

PDGFRB = PDGFRB (Homo sapiens, UniProt P09619)
Procedure, shortened: as §1

KDR = KDR (Homo sapiens, UniProt P35968)
Procedure, shortened: as §1

MAP3K8 = biological target: T2, MAP3K8 (Homo sapiens, UniProt P41279)
T2 construct: AssayQuant Technologies, Inc. (service provider)
Procedure, shortened: as §1

MAPK14/P38A = biological target: T3, MAPK14/P38A (Homo sapiens, UniProt Q16539)
T3 construct: AssayQuant Technologies, Inc. (service provider)
Procedure, shortened: as §1

FGFR3 = FGFR3 (Homo sapiens, UniProt P22607)
Procedure, shortened: as §1

FYNB = biological target: T4, FYNB (Homo sapiens, UniProt P06241)
T4 construct: AssayQuant Technologies, Inc. (service provider)
Procedure, shortened: as §1

PRKAA2/AMPK221 = PRKAA2/AMPK221 (Homo sapiens, UniProt P54646)
Procedure, shortened: as §1

FER = FER (Homo sapiens, UniProt P16591)
Procedure, shortened: as §1

EIF2AK2/PKR = biological target: T5, EIF2AK2/PKR (Homo sapiens, UniProt P19525)
T5 construct: AssayQuant Technologies, Inc. (service laboratory)
Procedure, shortened: as §1

RAF1 = RAF1 (Homo sapiens, UniProt P04049)
Procedure, shortened: as §1

TEK/TIE2 = biological target: T6, TEK/TIE2 (Homo sapiens, UniProt Q02763)
T6 construct: AssayQuant Technologies, Inc. (contract laboratory that ran the panel)
Procedure, shortened: as §1

TAOK2 = biological target: T7, TAOK2 (Homo sapiens, UniProt Q9UL54)
T7 construct: AssayQuant Technologies, Inc. (contract assay)
T7 sequence (Q9UL54 1-1235): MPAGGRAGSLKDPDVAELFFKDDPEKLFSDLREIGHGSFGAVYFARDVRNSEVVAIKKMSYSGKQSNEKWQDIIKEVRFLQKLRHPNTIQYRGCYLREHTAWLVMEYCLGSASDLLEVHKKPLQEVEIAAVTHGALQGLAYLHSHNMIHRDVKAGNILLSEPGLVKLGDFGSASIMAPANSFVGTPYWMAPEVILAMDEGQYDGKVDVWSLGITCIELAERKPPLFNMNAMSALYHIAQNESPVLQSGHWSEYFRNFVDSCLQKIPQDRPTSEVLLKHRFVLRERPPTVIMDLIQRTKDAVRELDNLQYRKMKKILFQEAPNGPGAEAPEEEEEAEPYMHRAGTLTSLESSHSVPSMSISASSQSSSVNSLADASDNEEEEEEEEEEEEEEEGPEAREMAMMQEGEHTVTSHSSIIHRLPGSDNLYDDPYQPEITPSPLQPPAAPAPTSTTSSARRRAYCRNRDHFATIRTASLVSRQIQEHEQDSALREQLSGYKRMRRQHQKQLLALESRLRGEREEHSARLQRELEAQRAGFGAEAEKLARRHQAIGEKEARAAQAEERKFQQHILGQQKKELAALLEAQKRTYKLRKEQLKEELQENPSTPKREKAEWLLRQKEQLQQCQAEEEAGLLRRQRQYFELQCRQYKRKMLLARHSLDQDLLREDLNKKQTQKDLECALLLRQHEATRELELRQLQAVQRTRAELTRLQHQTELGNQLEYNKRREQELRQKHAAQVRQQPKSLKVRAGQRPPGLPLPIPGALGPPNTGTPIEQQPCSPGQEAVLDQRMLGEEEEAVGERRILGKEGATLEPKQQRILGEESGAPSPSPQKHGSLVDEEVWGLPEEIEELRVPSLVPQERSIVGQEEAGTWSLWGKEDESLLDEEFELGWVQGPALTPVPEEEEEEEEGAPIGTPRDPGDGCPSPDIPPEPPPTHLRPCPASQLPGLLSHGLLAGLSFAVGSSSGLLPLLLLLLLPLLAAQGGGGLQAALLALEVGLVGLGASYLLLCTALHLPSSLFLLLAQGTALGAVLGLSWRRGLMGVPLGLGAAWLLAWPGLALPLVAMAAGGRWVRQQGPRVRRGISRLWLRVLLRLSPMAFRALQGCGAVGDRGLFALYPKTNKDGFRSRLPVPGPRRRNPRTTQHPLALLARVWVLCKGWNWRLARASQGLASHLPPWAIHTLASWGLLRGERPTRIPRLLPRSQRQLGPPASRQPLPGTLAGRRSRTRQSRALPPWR
Procedure, shortened: as §1

KIT = KIT (Homo sapiens, UniProt P10721)
Procedure, shortened: as §1

T6 sequence (Q02763 23-1124): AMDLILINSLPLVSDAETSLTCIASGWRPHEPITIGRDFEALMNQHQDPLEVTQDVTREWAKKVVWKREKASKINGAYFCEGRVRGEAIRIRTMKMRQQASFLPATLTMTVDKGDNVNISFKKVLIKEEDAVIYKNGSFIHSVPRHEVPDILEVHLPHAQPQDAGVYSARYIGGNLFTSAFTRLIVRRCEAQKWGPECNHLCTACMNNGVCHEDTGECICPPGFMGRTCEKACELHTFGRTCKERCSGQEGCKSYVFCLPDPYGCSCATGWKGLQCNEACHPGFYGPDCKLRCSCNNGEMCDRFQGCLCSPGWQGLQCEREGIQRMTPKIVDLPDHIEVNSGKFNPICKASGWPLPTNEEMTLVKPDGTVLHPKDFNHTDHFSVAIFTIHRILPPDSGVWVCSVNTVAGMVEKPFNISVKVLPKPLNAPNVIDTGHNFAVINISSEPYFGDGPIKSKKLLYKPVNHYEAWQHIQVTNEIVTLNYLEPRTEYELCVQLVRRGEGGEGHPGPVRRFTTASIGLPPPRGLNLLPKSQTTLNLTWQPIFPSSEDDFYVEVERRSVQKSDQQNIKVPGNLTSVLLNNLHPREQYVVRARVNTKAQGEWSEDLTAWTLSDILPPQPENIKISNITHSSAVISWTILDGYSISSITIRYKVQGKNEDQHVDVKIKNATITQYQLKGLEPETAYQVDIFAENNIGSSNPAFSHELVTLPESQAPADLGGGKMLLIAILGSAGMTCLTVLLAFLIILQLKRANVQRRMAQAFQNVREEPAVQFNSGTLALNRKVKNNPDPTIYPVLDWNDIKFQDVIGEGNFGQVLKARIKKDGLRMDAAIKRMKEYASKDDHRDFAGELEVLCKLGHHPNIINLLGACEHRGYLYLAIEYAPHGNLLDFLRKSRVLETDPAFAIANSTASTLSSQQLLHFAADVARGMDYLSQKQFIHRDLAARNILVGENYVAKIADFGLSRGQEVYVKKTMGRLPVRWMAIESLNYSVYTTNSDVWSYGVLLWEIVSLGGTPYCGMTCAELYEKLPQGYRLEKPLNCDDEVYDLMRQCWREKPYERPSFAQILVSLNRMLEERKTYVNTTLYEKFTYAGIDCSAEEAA
FER, sequence (P16591 whole entry, species assumed): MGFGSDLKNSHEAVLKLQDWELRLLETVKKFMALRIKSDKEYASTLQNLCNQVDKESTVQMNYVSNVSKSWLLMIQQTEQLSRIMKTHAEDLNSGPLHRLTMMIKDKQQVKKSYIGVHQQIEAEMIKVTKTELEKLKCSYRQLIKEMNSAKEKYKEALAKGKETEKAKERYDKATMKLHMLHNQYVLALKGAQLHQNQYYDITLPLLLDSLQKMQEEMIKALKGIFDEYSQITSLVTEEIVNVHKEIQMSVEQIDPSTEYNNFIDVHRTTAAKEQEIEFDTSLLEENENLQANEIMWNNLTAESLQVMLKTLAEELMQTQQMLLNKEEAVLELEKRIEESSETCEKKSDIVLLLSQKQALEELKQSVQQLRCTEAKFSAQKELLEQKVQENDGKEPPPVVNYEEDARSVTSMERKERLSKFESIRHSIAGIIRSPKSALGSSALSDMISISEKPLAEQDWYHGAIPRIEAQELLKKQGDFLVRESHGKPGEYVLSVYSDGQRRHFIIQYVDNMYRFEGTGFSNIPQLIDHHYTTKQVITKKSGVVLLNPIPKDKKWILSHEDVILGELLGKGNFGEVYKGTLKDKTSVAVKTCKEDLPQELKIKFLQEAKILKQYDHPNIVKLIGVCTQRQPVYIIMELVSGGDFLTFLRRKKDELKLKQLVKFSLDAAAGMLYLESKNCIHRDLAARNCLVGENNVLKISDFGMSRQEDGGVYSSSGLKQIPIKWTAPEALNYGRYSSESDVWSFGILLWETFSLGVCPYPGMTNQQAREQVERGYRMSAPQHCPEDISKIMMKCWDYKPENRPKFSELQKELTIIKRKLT
FGFR3, sequence (P22607 23-806, species assumed): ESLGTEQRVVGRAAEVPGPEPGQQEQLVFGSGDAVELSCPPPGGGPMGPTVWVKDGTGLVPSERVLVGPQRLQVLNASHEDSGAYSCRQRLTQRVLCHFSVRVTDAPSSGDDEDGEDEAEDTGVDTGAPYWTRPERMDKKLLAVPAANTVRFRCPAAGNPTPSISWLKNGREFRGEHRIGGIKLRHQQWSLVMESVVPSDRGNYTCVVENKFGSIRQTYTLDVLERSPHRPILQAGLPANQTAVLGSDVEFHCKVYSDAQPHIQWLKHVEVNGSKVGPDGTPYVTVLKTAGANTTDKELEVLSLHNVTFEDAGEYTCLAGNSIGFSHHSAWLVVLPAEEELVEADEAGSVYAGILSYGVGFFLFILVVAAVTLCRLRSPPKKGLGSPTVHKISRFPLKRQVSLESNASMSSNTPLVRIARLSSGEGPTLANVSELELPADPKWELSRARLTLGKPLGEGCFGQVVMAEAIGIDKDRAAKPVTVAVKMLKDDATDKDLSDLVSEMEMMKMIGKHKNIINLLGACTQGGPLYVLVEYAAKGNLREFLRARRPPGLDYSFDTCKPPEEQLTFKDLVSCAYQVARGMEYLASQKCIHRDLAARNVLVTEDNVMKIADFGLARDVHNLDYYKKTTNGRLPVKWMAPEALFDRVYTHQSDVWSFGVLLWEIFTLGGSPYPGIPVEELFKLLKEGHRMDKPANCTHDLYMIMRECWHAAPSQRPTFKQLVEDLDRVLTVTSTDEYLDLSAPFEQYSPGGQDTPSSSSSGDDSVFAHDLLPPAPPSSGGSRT
KDR, sequence (P35968 20-1356, species assumed): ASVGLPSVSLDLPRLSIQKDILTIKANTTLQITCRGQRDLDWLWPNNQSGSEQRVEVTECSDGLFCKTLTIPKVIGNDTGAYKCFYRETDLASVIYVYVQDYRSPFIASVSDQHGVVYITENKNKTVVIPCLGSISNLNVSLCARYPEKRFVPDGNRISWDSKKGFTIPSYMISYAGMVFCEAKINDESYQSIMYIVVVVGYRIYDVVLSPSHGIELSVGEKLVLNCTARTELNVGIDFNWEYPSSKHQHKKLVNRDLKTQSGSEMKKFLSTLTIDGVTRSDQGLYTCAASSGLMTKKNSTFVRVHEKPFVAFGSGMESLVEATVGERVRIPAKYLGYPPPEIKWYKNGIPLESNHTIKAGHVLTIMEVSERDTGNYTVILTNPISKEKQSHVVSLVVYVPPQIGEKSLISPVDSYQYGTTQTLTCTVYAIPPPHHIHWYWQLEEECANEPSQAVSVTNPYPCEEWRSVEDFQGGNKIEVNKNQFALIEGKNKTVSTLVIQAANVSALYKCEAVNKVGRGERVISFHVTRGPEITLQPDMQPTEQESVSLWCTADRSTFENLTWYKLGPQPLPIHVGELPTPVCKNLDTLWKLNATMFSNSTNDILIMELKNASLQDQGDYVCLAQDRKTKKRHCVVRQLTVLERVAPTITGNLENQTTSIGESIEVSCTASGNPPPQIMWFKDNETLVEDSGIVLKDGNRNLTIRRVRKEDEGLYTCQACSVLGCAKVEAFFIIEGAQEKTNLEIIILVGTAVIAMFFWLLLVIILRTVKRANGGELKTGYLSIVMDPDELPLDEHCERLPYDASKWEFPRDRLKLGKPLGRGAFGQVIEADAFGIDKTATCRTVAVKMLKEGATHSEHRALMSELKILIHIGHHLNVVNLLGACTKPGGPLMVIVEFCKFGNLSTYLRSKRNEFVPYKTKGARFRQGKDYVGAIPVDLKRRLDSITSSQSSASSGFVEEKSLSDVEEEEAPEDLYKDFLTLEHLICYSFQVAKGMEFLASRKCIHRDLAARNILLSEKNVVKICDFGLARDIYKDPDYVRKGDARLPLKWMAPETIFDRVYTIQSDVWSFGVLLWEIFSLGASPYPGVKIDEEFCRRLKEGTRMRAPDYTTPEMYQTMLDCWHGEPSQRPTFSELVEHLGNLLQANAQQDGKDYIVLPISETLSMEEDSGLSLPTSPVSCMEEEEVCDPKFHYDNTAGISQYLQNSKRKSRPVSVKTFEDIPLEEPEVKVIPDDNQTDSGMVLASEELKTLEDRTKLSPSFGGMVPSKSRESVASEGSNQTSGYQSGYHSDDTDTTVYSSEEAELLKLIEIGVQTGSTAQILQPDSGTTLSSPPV
T3 sequence (Q16539 2-360 limits assumed): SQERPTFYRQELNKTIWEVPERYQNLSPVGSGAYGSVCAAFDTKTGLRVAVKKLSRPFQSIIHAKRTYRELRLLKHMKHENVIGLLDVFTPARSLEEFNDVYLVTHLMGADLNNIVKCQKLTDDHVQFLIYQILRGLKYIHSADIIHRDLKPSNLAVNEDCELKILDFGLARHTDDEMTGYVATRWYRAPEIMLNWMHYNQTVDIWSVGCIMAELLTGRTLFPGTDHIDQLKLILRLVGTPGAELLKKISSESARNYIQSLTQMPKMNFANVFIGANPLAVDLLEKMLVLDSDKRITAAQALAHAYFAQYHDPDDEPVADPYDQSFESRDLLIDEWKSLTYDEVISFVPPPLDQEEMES
T1 sequence (P49761 whole entry, species assumed): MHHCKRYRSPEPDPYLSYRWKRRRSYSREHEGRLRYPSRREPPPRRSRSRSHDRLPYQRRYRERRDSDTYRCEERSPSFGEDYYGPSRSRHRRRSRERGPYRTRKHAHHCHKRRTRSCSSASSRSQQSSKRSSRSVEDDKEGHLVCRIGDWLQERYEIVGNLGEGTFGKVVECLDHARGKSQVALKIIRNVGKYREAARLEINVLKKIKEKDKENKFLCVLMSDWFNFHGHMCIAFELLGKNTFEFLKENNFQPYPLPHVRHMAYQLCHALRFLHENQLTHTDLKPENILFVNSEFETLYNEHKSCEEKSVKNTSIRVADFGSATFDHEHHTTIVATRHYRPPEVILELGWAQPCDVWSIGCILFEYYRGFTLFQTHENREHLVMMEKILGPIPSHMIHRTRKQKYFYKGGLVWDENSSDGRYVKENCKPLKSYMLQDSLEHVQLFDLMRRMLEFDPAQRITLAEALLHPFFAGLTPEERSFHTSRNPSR

| Structure (SMILES) | inhibition at 1 µM (CLK3) [%] | inhibition at 1 µM (PDGFRB) [%] | inhibition at 1 µM (KDR) [%] | inhibition at 1 µM (MAP3K8) [%] | inhibition at 1 µM (MAPK14/P38A) [%] | inhibition at 1 µM (FGFR3) [%] | inhibition at 1 µM (FYNB) [%] | inhibition at 1 µM (PRKAA2/AMPK221) [%] | inhibition at 1 µM (FER) [%] | inhibition at 1 µM (EIF2AK2/PKR) [%] | inhibition at 1 µM (RAF1) [%] | inhibition at 1 µM (TEK/TIE2) [%] | inhibition at 1 µM (TAOK2) [%] | inhibition at 1 µM (KIT) [%] |
| --- | --- | --- | --- | --- | --- | --- | --- | --- | --- | --- | --- | --- | --- | --- |
| C=CC(=O)N1CCCC(c2c(F)cc(C(N)=O)c3[nH]c4c(c23)CCCCC4)C1 (single isomer, unassigned) [Compound 5-6] | -29.3 | -52.9 | 10.3 | 7.4 | -8.3 | 24.2 | 21 | -17.9 | 32 | -28 | 3.7 | -11.2 | -14.5 | 5.5 |
| C=CC(=O)N1CCC[C@@H](c2c(F)cc(C(N)=O)c3[nH]c4c(c23)CC2(CC4)CC2)C1 [Compound 6-2, (S)-5-(1-acryloylpiperidin-3-yl)-6-fluoro-1,2,4,9-tetrahydrospiro[carbazole-3,1′-cyclopropane]-8-carboxamide] | -0.1 | 23.2 | 31.6 | 10.1 | 28.2 | 10.5 | -20 | 11.7 | 2.1 | -1.6 | 1 | 4.6 | -24.8 | 26.9 |
| C=CC(=O)N1CCC[C@@H](c2c(F)cc(C(N)=O)c3[nH]c4c(c23)CCC4)C1 [Compound 10-2, (S)-8-(1-acryloylpiperidin-3-yl)-7-fluoro-1,2,3,4-tetrahydrocyclo-penta[b]indole-5-carboxamide] | -19.2 | 4.7 | 32.7 | 4.5 | 5 | 18.3 | -36.2 | 32.1 | 29.3 | 65.5 | -3.1 | -15.2 | 11.4 | 20.8 |
